The NIST ThermoML archive (doi:10.1016/j.fluid.2006.02.022)
Values joined by “and” are separate entries in the source; they are usually repeats but may differ in a detail not shown here. Equal entries are not always repeated. ± gives the expanded uncertainty stated by the source.

Experiment: activity coefficient (dimensionless); of the first substance listed, at infinite dilution; xn = mol fraction of the nth substance listed
Settings: 101 kPa, Liquid, Chromatography, x1 = 0

SMILES: CCOC(C)(C)CC [1,1-dimethylpropyl ethyl ether] + O
- activity coefficient (288.15 K): 1350 ± 100
- activity coefficient (298.15 K): 1990 ± 140
- activity coefficient (308.15 K): 2530 ± 190
- activity coefficient (318.15 K): 3320 ± 350

SMILES: CCCCS [1-butanethiol] + O
- activity coefficient (288.15 K): 6030 ± 490
- activity coefficient (298.15 K): 6040 ± 530
- activity coefficient (308.15 K): 5830 ± 570
- activity coefficient (318.15 K): 5340 ± 620
- activity coefficient (333.15 K): 4140 ± 620

SMILES: CCCS [1-propanethiol] + O
- activity coefficient (288.15 K): 1420 ± 110
- activity coefficient (298.15 K): 1500 ± 120
- activity coefficient (308.15 K): 1460 ± 130
- activity coefficient (318.15 K): 1450 ± 150
- activity coefficient (333.15 K): 1310 ± 160

SMILES: CCOC(C)(C)C [2-ethoxy-2-methylpropane] + O
- activity coefficient (288.15 K): 325 ± 22
- activity coefficient (298.15 K): 514 ± 35
- activity coefficient (308.15 K): 659 ± 46
- activity coefficient (318.15 K): 873 ± 82

SMILES: CCC(C)(C)OC [2-methoxy-2-methylbutane] + O
- activity coefficient (288.15 K): 390 ± 39
- activity coefficient (298.15 K): 529 ± 44
- activity coefficient (308.15 K): 725 ± 55
- activity coefficient (318.15 K): 1070 ± 87

SMILES: COC(C)(C)C [2-methoxy-2-methylpropane] + O
- activity coefficient (288.15 K): 127 ± 13
- activity coefficient (298.15 K): 139 ± 11
- activity coefficient (308.15 K): 180 ± 14
- activity coefficient (318.15 K): 234 ± 18

SMILES: CC(C)S [2-propanethiol] + O
- activity coefficient (288.15 K): 1120 ± 90
- activity coefficient (298.15 K): 1140 ± 100
- activity coefficient (308.15 K): 1190 ± 120
- activity coefficient (318.15 K): 1130 ± 130

SMILES: CCOC(C)(C)CC(C)(C)C [ethyl 1,1,3,3-tetramethylbutyl ether] + O
- activity coefficient (288.15 K): 111000 ± 9700
- activity coefficient (298.15 K): 143000 ± 16000
- activity coefficient (308.15 K): 149000 ± 23000
- activity coefficient (318.15 K): 126000 ± 27000
- activity coefficient (333.15 K): 76900 ± 29000

SMILES: COC(C)(C)CC(C)(C)C [methyl 1,1,3,3-tetramethylbutyl ether] + O
- activity coefficient (318.15 K): 47100 and 126000
- activity coefficient (333.15 K): 35500 and 76900

SMILES: c1ccsc1 [thiophene] + O
- activity coefficient (288.15 K): 1260 ± 100
- activity coefficient (298.15 K): 1270 ± 96
- activity coefficient (308.15 K): 1310 ± 100
- activity coefficient (318.15 K): 1290 ± 110
- activity coefficient (333.15 K): 1100 ± 100

SMILES: Cc1ccccc1 [toluene] + O
- activity coefficient (288.15 K): 8980 ± 950
- activity coefficient (298.15 K): 8950 ± 950
- activity coefficient (308.15 K): 8780 ± 930
- activity coefficient (318.15 K): 8290 ± 880
